Key:
[1] = tested on: H358 cells; test: Inhibition of 3D cell proliferation (3D CellTiter-Glo); format: cell-based; settings: Homo sapiens, NCI-H358, 168 h; 3D cell proliferation in H358 cells, 7 days culture, 3D CellTiter-Glo
Description: H358 cells were seeded in a T75 culture flask, and cultured in a RPMI 1640 medium containing 10% FBS for 2 days for subsequent experiments in which the cells would be cultured or seeded on a 384-well plate.
On day 1, the cells were seeded on the 384-well plate, with 40 µL of medium added per well and serially diluted compounds or DMSO added per well, and an additional well without seeded cells but with medium was set up as a blank control. After culture at 37°C, 5% CO2 for 7 days, the plate was added with 3D CellTiter-Glo reagent (Promega, Cat. No. G9683) on day 8, shaken at 320 rpm for 20 min, and left at room temperature for 2 h. Luminescence signals were read on a multifunctional microplate reader. Cell viability inhibition rate was calculated as: [formula]
(§1) IC50 values were calculated using Graphpad 5 software.

[2] = tested on: ERK phosphorylation level in DLD-1 cells; test: Inhibition of ERK phosphorylation level in DLD-1 cells (intracellular western blot); format: cell-based; settings: Homo sapiens
Description: Intracellular western blot quantitative analysis was used to detect the inhibitory level of compounds on ERK phosphorylation in DLD-1 cells.
DLD-1 cells (ATCC, CCL-221) were seeded in a T75 culture flask at 2.5 × 10^6 cells/flask, and cultured in a RPMI 1640 medium containing 10% FBS for 2 days. On day 3, the cells were seeded on a 384-well plate, and cultured overnight at 37°C, 5% CO2. After overnight culture, the plate was added with serially diluted compounds (the final content of DMSO was 0.5%), the negative group was added with DMSO, and incubated in a 37°C, 5% CO2 incubator.
The cells were fixed, washed once with PBS, treated to disrupt membranes, and blocked at room temperature for 1 h. The blocking solution was removed. The plate was added with primary antibody (CST, Cat. No. #4370S), and incubated overnight at 4°C. The plate was washed 3 times with PBST (PBS solution added with 0.05% Tween-20), and soaked for 2 min each time. The plate was added with secondary antibody (LI-COR, Cat. No. 926-32211), and incubated at room temperature in the dark. The plate was washed 3 times with PBST, and soaked for 2 min each time. The plate was centrifuged at 1000 rpm for 1 min, scanned on a two-color infrared laser imaging system (Odyssey® CLX) to read the signal. Relative signal = 800-channel signal values/700-channel signal values. […]
as §1

[3] = Human liver microsome stability test; format: in vitro ADME; settings: human liver microsomes, incubation for 30 min, 37°C
Description: The human liver microsome stability test was performed by incubating the compound and human liver microsomes in vitro. First, the compound to be tested was prepared into a 10 mM stock solution in DMSO solvent, and then the compound was diluted to 0.5 mM with acetonitrile. Human liver microsomes (Corning) were diluted with PBS into a microsome/buffer solution, and the solution was used to dilute 0.5 mM compound into a working solution, in which the concentration of the compound was 1.5 µM, and the concentration of human liver microsomes was 0.75 mg/mL. A deep-well plate was taken, 30 µL of the working solution was added per well, and then 15 µL of pre-heated 6 mM NADPH solution was added thereto to initiate a reaction, and the reaction was incubated at 37°C. At 0, 5, 15, 30, and 45 min of the incubation, 135 µL of acetonitrile was added to the corresponding wells to terminate the reaction. After the reaction was terminated with acetonitrile at the last time point of 45 min, the deep-well plate was vortexed for 10 min (600 rpm/min), and then centrifuged for 15 min. After centrifugation, the supernatant was collected, and added with purified water in a ratio of 1:1 to perform LC-MS/MS detection. A ratio of a peak area of compound to a peak area of internal standard at each time point was obtained, and the peak area ratios of the compound at 5, 15, 30, and 45 min were compared with the peak area ratio at 0 min to calculate the remaining percentage of the compound at each time point. T1/2 was calculated by using GraphPad 5 software.

[4] = tested on: NCI-H1975 non-small cell lung cancer; test: In vivo efficacy test of NCI-H1975 non-small cell lung cancer (combination with osimertinib); parameters: species or system mice; settings: 1 mg/kg, QD
Description: NCI-H1975 tumor cells were cultured in an incubator at 37°C and 5% CO2 using medium containing inactivated RPMI 1640 + 10% FBS. After reaching a confluency rate of 80 to 90%, the cells were passaged by subculturing. After one week of adaptive feeding in mice, NCI-H1975 cells in logarithmic phase were inoculated subcutaneously into the right flank of mice at a concentration of 5 × 10^6/100 µL. Tumor growth was regularly monitored until the tumors reached an average volume of 100 to 150 mm^3. […] Tumor size and animal weight were measured and recorded before and during the administration process. The differences in tumor size between the model group and administration group were compared to determine the efficacy.

SMILES	IC50 [1] [nM]	IC50 [2] [nM]	Remaining percentage (%) of compound after incubation for 30 min [3] [%]	Average tumor weight at the end of the treatment [4] [g]
Cc1nc(N[C@H](C)c2cccc(C(F)(F)F)c2C)c2cn(C3(CF)CC3)c(=O)cc2n1 [Control compound 1, reference compound]	13	72	70.2	
C=CC(=O)Nc1cc(Nc2nccc(-c3cn(C)c4ccccc34)n2)c(OC)cc1N(C)CCN(C)C [Osimertinib]				3.2

From patent publication EP4570800A1, “CRYSTAL FORM OF PYRIDINOPYRIMIDINONE COMPOUND, ACID SALT THEREOF, CRYSTAL FORM OF ACID SALT THEREOF, AND USE” (Wuhan Humanwell Innovative Drug Research and Development …, priority 2022, dated 2024)
